Experimental data from ChEMBL document CHEMBL1150976, “The selectivity of protein kinase inhibitors: a further update” (Biochem J, 2007).

Columns and labels:
[1] = molecular target: Serine/threonine-protein kinase PAK 5 (Homo sapiens) (UniProt Q9P286); assay: Percentage PAK5 activity remaining in the presence of 25uM inhibitor
[2] = molecular target: T1, Serine/threonine-protein kinase D1 (Homo sapiens) (UniProt Q15139); assay: Percentage PKD1 activity remaining in the presence of 25uM inhibitor
T1 sequence (whole entry): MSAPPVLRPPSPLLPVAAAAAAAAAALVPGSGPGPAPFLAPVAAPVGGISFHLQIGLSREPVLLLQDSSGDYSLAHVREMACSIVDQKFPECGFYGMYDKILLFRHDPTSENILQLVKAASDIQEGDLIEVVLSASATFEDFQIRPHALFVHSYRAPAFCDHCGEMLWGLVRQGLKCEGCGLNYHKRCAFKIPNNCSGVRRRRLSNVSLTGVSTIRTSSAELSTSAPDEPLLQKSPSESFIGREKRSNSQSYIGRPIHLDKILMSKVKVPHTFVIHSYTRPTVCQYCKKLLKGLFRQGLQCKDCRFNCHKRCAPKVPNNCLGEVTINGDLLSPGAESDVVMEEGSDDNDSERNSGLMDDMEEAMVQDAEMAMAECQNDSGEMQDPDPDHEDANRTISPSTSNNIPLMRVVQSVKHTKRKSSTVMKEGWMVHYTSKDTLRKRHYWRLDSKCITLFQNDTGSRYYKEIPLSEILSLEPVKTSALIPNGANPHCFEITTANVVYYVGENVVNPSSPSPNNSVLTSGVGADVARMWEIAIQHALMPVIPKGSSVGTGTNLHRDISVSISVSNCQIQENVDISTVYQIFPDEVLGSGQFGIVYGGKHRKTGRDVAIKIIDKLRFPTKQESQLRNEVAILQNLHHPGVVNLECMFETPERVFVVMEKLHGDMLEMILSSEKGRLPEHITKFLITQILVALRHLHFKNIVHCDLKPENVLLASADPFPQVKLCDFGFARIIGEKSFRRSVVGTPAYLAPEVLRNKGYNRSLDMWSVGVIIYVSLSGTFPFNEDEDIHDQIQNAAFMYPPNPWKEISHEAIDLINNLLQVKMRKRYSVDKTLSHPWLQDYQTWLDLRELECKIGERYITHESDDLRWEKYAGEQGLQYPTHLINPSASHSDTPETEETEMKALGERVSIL

[3] = molecular target: Dual specificity tyrosine-phosphorylation-regulated kinase 1A (Homo sapiens) (UniProt Q13627); assay: Percentage DYRK1A activity remaining in the presence of 25uM inhibitor
[4] = molecular target: Serine/threonine-protein kinase PAK 6 (Homo sapiens) (UniProt Q9NQU5); assay: Percentage PAK6 activity remaining in the presence of 25uM inhibitor
Sequence of Serine/threonine-protein kinase PAK 6 (Homo sapiens) (Q9NQU5 whole entry, looked up): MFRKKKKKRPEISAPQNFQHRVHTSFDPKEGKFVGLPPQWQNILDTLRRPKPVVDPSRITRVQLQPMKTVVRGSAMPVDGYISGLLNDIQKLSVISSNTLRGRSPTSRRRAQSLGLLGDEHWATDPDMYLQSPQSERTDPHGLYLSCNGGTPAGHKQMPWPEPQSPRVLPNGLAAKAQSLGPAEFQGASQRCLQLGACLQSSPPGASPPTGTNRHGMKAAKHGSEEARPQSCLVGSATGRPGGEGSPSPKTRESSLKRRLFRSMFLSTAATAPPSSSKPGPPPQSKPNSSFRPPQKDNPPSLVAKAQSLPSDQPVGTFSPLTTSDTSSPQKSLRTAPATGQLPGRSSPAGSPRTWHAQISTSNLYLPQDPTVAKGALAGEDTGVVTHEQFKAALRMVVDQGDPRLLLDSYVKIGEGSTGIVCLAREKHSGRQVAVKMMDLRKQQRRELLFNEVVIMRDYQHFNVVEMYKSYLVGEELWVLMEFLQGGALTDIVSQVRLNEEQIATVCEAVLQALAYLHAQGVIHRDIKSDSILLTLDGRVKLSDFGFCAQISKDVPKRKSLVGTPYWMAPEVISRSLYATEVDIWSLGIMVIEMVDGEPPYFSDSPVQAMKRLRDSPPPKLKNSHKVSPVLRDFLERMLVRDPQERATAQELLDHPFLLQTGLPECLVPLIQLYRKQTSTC

[5] = molecular target: Mitogen-activated protein kinase 14 (Homo sapiens, UniProt Q16539); assay: Percentage p38alpha activity remaining in the presence of 25uM inhibitor
Sequence of Mitogen-activated protein kinase 14 (Q16539 whole entry): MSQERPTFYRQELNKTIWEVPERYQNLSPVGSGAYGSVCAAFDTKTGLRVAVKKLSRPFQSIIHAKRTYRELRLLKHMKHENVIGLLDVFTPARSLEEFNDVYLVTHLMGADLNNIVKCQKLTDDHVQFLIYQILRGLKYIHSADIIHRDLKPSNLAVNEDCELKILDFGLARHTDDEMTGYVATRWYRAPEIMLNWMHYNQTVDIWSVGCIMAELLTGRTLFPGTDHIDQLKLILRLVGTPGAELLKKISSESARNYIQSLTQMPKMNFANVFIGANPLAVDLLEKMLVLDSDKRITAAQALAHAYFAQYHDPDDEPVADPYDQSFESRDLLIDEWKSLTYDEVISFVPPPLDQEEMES

[6] = molecular target: Calcium/calmodulin-dependent protein kinase type 1 (Homo sapiens) (UniProt Q14012); assay: Percentage CaMK1 activity remaining in the presence of 25uM inhibitor
Sequence of Calcium/calmodulin-dependent protein kinase type 1 (Homo sapiens) (Q14012 whole entry, looked up): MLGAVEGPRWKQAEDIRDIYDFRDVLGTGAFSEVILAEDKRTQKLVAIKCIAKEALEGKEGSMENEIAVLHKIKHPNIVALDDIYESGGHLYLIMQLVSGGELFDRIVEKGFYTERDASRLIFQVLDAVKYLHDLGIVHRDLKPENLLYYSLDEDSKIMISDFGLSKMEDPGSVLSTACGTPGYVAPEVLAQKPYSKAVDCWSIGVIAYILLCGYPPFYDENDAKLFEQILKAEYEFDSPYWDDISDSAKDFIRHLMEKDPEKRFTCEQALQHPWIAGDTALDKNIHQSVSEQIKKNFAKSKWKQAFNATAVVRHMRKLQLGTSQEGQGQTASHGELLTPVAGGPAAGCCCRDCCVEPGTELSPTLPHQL

[7] = molecular target: T2, Aurora kinase C (Homo sapiens) (UniProt Q9UQB9); assay: Percentage Aurora C activity remaining in the presence of 25uM inhibitor
T2 sequence (whole entry): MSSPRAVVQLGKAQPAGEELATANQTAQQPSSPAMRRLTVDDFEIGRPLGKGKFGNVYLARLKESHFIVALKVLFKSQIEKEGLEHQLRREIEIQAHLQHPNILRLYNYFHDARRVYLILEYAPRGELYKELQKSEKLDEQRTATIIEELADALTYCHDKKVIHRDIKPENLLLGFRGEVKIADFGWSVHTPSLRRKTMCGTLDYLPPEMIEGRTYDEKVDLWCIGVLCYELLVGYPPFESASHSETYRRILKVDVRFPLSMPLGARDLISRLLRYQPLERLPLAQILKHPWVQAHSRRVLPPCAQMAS

[8] = molecular target: Casein kinase I isoform delta (Homo sapiens, UniProt P48730); assay: Percentage CK1delta activity remaining in the presence of 25uM inhibitor; conditions: filed as antagonist
Sequence of Casein kinase I isoform delta (P48730 whole entry, looked up, canonical isoform): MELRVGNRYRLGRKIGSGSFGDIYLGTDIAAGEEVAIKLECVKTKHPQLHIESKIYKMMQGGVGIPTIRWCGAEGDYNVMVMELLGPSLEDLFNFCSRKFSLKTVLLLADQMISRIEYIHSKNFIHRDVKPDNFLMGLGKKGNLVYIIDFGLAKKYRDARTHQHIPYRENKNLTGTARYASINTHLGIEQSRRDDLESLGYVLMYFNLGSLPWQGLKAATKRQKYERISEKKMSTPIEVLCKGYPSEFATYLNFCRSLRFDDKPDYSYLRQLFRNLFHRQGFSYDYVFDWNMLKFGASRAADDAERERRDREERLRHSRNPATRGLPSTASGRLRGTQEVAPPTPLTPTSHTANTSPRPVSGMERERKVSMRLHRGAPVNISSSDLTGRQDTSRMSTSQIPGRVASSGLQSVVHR

[9] = molecular target: T3, Serine/threonine-protein kinase Chk1 (Homo sapiens) (UniProt O14757); assay: Percentage CHK1 activity remaining in the presence of 25uM inhibitor
T3 sequence (whole entry): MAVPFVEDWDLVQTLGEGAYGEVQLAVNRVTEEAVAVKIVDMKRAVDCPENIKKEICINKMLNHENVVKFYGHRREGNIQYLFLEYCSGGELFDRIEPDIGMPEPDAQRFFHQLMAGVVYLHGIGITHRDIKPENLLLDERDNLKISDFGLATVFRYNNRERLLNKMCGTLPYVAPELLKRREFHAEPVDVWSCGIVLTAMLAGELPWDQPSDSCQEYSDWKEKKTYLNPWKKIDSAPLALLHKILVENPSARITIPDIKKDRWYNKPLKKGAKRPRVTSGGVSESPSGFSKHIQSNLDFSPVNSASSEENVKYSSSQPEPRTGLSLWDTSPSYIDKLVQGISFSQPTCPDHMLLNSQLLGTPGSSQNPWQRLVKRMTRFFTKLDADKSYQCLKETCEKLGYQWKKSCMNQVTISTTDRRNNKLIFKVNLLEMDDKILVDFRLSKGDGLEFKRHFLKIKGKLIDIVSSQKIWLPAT

[10] = molecular target: MAP kinase-interacting serine/threonine-protein kinase 1 (Homo sapiens) (UniProt Q9BUB5); assay: Percentage MNK1 activity remaining in the presence of 25uM inhibitor
Sequence of MAP kinase-interacting serine/threonine-protein kinase 1 (Homo sapiens) (Q9BUB5 whole entry, looked up): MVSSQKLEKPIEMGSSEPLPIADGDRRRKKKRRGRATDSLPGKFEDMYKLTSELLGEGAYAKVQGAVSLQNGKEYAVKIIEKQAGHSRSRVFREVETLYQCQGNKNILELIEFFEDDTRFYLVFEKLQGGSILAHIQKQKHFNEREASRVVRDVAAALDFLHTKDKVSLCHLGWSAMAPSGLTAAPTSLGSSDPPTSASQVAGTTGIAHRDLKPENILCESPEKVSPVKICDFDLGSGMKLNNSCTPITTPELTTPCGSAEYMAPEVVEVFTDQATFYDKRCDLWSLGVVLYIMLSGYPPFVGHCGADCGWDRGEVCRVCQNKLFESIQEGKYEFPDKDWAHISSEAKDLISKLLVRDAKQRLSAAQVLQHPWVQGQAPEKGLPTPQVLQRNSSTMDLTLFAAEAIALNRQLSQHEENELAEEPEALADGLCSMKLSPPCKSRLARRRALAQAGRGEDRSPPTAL

[11] = molecular target: T4, Serine/threonine-protein kinase Nek2 (Homo sapiens) (UniProt P51955); assay: Percentage NEK2a activity remaining in the presence of 0.01uM inhibitor
T4 sequence (whole entry): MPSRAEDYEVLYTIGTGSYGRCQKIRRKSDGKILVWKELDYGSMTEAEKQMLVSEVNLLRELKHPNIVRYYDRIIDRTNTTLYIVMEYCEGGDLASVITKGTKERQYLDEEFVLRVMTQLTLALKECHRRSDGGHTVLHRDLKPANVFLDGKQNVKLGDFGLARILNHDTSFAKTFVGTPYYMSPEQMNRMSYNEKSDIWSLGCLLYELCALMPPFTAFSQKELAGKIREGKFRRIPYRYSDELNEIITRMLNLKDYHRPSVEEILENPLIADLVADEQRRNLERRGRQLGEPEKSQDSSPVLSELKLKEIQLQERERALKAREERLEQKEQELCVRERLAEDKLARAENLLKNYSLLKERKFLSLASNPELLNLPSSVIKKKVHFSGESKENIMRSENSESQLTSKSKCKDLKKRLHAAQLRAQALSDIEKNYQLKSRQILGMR

Sequence of Serine/threonine-protein kinase PAK 5 (Homo sapiens) (Q9P286 whole entry, looked up): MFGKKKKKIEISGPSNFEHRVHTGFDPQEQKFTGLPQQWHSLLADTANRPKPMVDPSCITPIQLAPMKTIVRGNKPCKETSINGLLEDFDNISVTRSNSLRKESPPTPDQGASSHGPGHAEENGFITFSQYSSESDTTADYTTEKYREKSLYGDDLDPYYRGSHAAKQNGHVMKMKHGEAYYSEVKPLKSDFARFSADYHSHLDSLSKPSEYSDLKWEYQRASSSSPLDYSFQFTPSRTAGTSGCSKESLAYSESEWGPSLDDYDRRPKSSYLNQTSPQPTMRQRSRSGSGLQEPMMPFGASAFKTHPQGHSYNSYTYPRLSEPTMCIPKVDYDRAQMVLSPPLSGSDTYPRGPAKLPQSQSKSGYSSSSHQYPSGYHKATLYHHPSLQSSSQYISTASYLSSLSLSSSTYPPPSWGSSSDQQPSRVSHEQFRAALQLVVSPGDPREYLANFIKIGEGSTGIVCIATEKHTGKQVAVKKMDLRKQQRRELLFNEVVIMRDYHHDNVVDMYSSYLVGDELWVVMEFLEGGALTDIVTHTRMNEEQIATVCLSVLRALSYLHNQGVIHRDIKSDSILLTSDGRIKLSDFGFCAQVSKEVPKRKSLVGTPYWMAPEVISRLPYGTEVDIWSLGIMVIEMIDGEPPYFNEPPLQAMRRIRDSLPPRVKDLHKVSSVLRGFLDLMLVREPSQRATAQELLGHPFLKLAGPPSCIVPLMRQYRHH

| Activity ([3]; filed as antagonist) | Activity ([10]; filed as antagonist) | SMILES | Activity [1] | Activity [2] | Activity [3] | Activity [4] | Activity [5] | Activity [6] | Activity [7] | Activity [8] | Activity [9] | Activity [10] | Activity [11] |
| --- | --- | --- | --- | --- | --- | --- | --- | --- | --- | --- | --- | --- | --- |
|  |  | COc1cc(OC)c(/C=C2/C(=O)Nc3ccccc32)c(OC)c1 | 84% | 62% | 73% | 76% | 92% | 55% | 94% | 9% | 99% | 79% |  |
| 39% | 26% | NCCNS(=O)(=O)c1ccc(Cl)c2ccncc12 | 86% | 60% |  | 78% | 103% | 82% | 95% | 12% | 86% |  |  |
|  |  | CN[C@@H]1C[C@H]2O[C@@](C)([C@@H]1OC)n1c3ccccc3c3c4c(c5c6ccccc6n2c5c31)C(=O)N[C@H]4O (stereo in doubt) |  |  |  |  |  |  |  |  |  |  | 85% |
|  |  | O=C(NCCCNc1nc(Nc2cccc(NC(=O)N3CCCC3)c2)ncc1I)c1cccs1 |  |  |  |  |  |  |  |  |  |  | 92% |
